Results: patent publication US20220346372A1, “Compositions For Preparing Microemulsion, Microemulsion, Method For Producing Composition And Microemulsion, And Use Of Mircoemulsion” (Moresco Corporation, priority 2019, published 2022)

assay: LogP, flask shaking method (OECD guideline, n-octanol/water); format: physicochemical; details: 1-octanol-water partition coefficient
Excerpt: Here, LogP is a common logarithmic value of a 1-octanol-water or 1-octanol-buffer partition coefficient of a chemical substance. In the present specification, LogP is a value measured by a flask shaking method based on OECD GUIDELINE FOR THE TESTING OF CHEMICALS, “Partition Coefficient (n-octanol/water): Shake Flask Method”. A chemical substance having a higher LogP has a higher degree of lipophilicity. In other words, a chemical substance having a higher LogP has a higher degree of fat-solubility.

| Compound | LogP of the poorly water-soluble functional component |
| --- | --- |
| COc1ccc2c(c1)c(CC(=O)O)c(C)n2C(=O)c1ccc(Cl)cc1 [indomethacin, Indomethacin] | 4.25 |
| Cc1c(C)c2c(c(C)c1O)CCC(C)(CCCC(C)CCCC(C)CCCC(C)C)O2 (racemic) [tocopherol, DL-α-Tocopherol] | 8.84 |
| Tocotrienol | 7.68 |

same assay, conditions: 1-octanol-water partition coefficient, read-out: LogP of the poorly water-soluble functional component

| Compound | logP |
| --- | --- |
| CC1CCC(C(C)C)C(O)C1 (single isomer, unassigned; (-)) [menthol, (−)-Menthol] | 2.68 |
| COc1ccc2c(c1)c(CC(=O)O)c(C)n2C(=O)c1ccc(Cl)cc1 [indomethacin, Indomethacin] | 4.25 |
| Clc1ccc(C(c2ccc(Cl)cc2)C(Cl)(Cl)Cl)cc1 [DDT, dichlorodiphenyltrichloroethane] | 6.5 |
| C[C@]12CC[C@H]3[C@@H](CCC4=CC(=O)CC[C@@]43C)[C@@H]1CC[C@@H]2O [testosterone, Testosterone] | 2.99 |
| COc1cc(/C=C/C(=O)CC(=O)/C=C/c2ccc(O)c(OC)c2)ccc1O [curcumin, Curcumin] | 3.62 |
| COC1=C(OC)C(=O)C(C/C=C(\C)CC/C=C(\C)CC/C=C(\C)CC/C=C(\C)CC/C=C(\C)CC/C=C(\C)CC/C=C(\C)CC/C=C(\C)CC/C=C(\C)CCC=C(C)C)=C(C)C1=O [CoQ10, coenzyme Q10] | 11 |
| CC(=O)O[C@H]1C(=O)[C@@]2(C)[C@H]([C@H](OC(=O)c3ccccc3)[C@]3(O)C[C@H](OC(=O)[C@H](O)[C@@H](NC(=O)c4ccccc4)c4ccccc4)C(C)=C1C3(C)C)[C@]1(OC(C)=O)CO[C@@H]1C[C@@H]2O [paclitaxel, Paclitaxel] | 3.2 |
